Results on 4 molecules are retold here after US20030143191A1, “Chemokine beta-1 fusion proteins” (priority 2001, published 2003).

The subject of one assay is HIV. The settings on record: cited from earlier work.
In the next assay the test system is NF-KB. Put plainly: NF-KB/SV40/SEAP reporter assay in Jurkat T-cells. Type of assay: cell-based. The settings on record: NF-KB/SV40/SEAP/Neo Jurkat T-cells; 0.1, 1, 10 ng; positive control. The source says:
NF-KB (Nuclear Factor KB) is a transcription factor activated by a wide variety of agents including the inflammatory cytokines IL-1 and TNF, CD30 and CD40, lymphotoxin-alpha and lymphotoxin-beta, by exposure to LPS or thrombin, and by expression of certain viral gene products. As a transcription factor, NF-KB regulates the expression of genes involved in immune cell activation, control of apoptosis (NF-KB appears to shield cells from apoptosis), B and T-cell development, anti-viral and antimicrobial responses, and multiple stress responses.
Due to its central role and ability to respond to a range of stimuli, reporter constructs utilizing the NF-KB promoter element are used to screen the fusion protein. Activators or inhibitors of NF-KB would be useful in treating, preventing, and/or diagnosing diseases. For example, inhibitors of NF-KB could be used to treat those diseases related to the acute or chronic activation of NF-KB, such as rheumatoid arthritis.
To construct a vector containing the NF-KB promoter element, a PCR based strategy is employed. The upstream primer contains four tandem copies of the NF-KB binding site ([…]) (SEQ ID NO: 48), 18 bp of sequence complementary to the 5′ end of the SV40 early promoter sequence, and is flanked with an XhoI site: […]
A general note: In a reporter assay the amount or activity of a reporter protein is the signal.

As for `C[C@H](Sc1nc(N)cc(Cl)n1)c1cc2ccoc2cn1` [PNU-142721], the “activity relative to its predecessor delavirdine” value in the assay on HIV is listed as 20- to 50 fold.

On to TNF alpha, for which the “activation (SEAP reporter activity)” value with NF-KB was 5-10 fold.

Turning to `CC[C@H]1C(=O)Nc2ccc(F)cc2N1C(=O)OC(C)C` [GW-420867×], the “activity relative to HBY097” value in the assay on HIV was 25 fold.

As to `Nc1nc(=O)n([C@@H]2CS[C@H](CO)O2)cc1F` [emtricitabine], the “activity in vitro relative to lamivudine (3TC)” value in the assay with HIV (in vitro) is listed as 3- to 10 fold.
